# According to patent US20180318200A1, “MOUTHWASH PRODUCTS AND METHODS” (COLGATE-PALMOLIVE COMPANY, priority 2015, published 2018):
# Like-named read-outs stand apart in the source and are kept apart here.
# Legend:
# [1] = Nanoindentation (nanohardness and Young's modulus) of acid-etched enamel blocks; design: species or system bovine; details: hydrolyzed wheat protein 0.5 weight %, fluoride 500 ppm; three cycles of 30 minutes treatment + 22 to 24 hours AS
# Description: Enamel blocks are prepared as described in Example 1. Acid-etching is achieved by placing the enamel blocks in 1% citric acid solution (pH 3.8) for 15 minutes. The nanohardness and Young's modulus at 500 nm depth are measured prior to and after etching. Etched enamel blocks are incubated with a solution of hydrolyzed wheat protein (GLUADIN W20), at a concentration of 0.5 weight %, for 30 minutes (2 ml solution/block), followed by an incubation with AS solution as described in Example 1, for 22 to 24 hours. The hydrolyzed wheat protein and AS incubation steps are repeated two additional times, after which the enamel blocks are rinsed with DI water and air-dried. The nanohardness and Young's modulus of the treated enamel blocks are measured at 500 nm depth to assess the enamel repair effects of the hydrolyzed wheat protein. A solution of 500 ppm fluoride is used as a positive control for the experiment. The results are illustrated in Tables 2 and 3.
# [2] = surface microhardness loss, 4 day cycling, four 10 minute treatments per day
# Description: The selected enamel blocks are then the enamel blocks are pre-treated and subjected to 4 day cycling as described below, using DI water (negative control), 500 ppm F (positive control) and 0.2% wheat hydrolysate (Gluadin W20)+500 ppm F (test material) prepared as described in the previous example. The microhardness of the enamel blocks is measured again as final (MHfinal).
# Each enamel block is sanitized in ethanol twice then washed in sterile DI water three times. Then each enamel block is pre-incubated in saliva supernatant at 4° C. overnight to form pellicle on the enamel surface.
# Day Two to Five—Dentifrice treatment, demineralization and remineralization: Unstimulated whole saliva is collected from donors, who refrain from eating and oral hygiene in the morning. The saliva is pooled and centrifuged at 8000 rpm for 10 minutes. […] The sediment is washed once using sterile DI water and centrifuged at 8000 rpm for 10 minutes. The water supernatant is removed. The washed sediment is then diluted in the salivary supernatant TSB mixture to an OD (610 nm)=0.5. […]
# Surface microhardness loss (SMHL, Demin %) as a percent was calculated as (1−(Microhardnessfinal/Microhardnesssound))*100.
# [3] = Microhardness (Knoop) remineralization assay on etched enamel blocks; design: species or system bovine; details: hydrolysate filtrate with CPC 0.1% and fluoride (NaF) as stated in the label
# Description: Enamel blocks are prepared as described in Example 1. […] Blocks with a Knoop hardness (KH) of at least 300 are selected. The blocks are etched by immersing in 30% phosphoric acid for 15 seconds. The KH on the left and right sides of the blocks are measured. Subsequently, the right side of the blocks are covered with tape prior to treating the blocks with 20 mg/ml solution of hydrolyzed wheat protein (Gluadin W20 from BASF) or hydrolyzed rice protein (GLUADIN R from BASF), each neutralized as described in example 1, for two terms of 30 minutes. (The tape on the right hand side of the blocks prevents exposure of this side to the protein solution and serves as an internal control). The blocks are washed twice with DI water @ 5 minutes, 500 PRM between the two treatments and after the second treatment. Subsequently, the tape is removed and the blocks are incubated in AS solution (0.2 mM MgCl2, 1 mM CaCl2.H2O, 20 mM HEPES buffer, 4 mM KH2PO4, 16 mM KCl, 4.5 mM NH4Cl, 300 ppm NaF, 0.05 wt. % NaN3, at pH 7 (adjusted with 1M NaOH)) for 7 days. After rinsing the enamel blocks with DI water and air-drying the rinsed blocks, microhardness is measured again. Surface microhardness regain (SMHL, Remin %) as a percent is calculated as […]
# [4] = evaluation with weight adjustment; two 30 minute ex vivo treatments, 7 days in situ in retainer
# Description: A treatment phase is completed ex vivo. Initial microhardness (MH) measurements are taken on sound, bovine enamel blocks (MHBaseline). The blocks are then etched with 30% phosphoric acid until there was a 40% change in the microhardness reading from Baseline. The microhardness is recorded as etched (Equation 1, MHEtched). Each etched enamel block is then immersed in a 2 ml solution of pre-treated 0.2% wheat hydrolysate (Gluadin W20)+500 ppm F prepared as described above, or a 2 ml solution of 500 ppm F, for 30 minutes. After 30 minutes, the blocks are washed twice with DI water at 500 RPM for 5 minutes, and then dried with a paper towel. This treatment cycle is repeated. The blocks are then secured within the designated location on a retainer for placement in the oral cavity of a subject. Six enamel blocks are placed in each retainer. Pre-punched holes on the retainer allow saliva fluid to contact etched enamel and to provide minerals for remineralization. […] The treated and control enamel blocks are randomized on the left or right side of the retainer. The retainers are then stored in a refrigerator until Day 1 of the study.
# Twenty-six subjects are included in this randomized, blinded study. […] After 7 days, the enamel blocks are taken out of the appliance to take the final microhardness measurements (MHRemineralized) Demineralization and remineralization are calculated as follows: […]
smiles,measurement,setting,value
"F [Fluoride, NaF]",Nanohardness Repair at 500 nm depth (%),[1],31.12%
same,Young's Modulus Repair at 500 nm depth (%),[1],48.50%
same,Demineralization percentage,[2]; 0.2% sucrose,8.36%
same,Demineralization percentage,[2]; 0.4% sucrose,19.99%
same,Remineralization %,[3]; listed as Buffer + 250 ppm fluoride,11.73%
same,Remineralization %,[3]; listed as Buffer + 500 ppm fluoride,15.87%
same,% Remin,[4],27.6%
